Data on 7 compounds can be found in patent US20220226479A1, “CELL LAYER PERMEATION PROMOTER. COMPOSITION FOR FACILITATING DRUG ABSORPTION. AND PHARMACEUTICAL COMPOSITION” (University of Tsukuba, priority 2019, published 2022).

In this experiment the test system is MDCK II cells. Put plainly: Permeation evaluation test with FD4 marker (dextran, molecular weight 4000) across a model epithelial cell layer in a transwell. Particulars: for cell-layer-permeation-promoting effect (permeation of FD4, result in words): 0.003 mM in 1 v/v % DMSO, FIG. 1-4; for increase/accumulation in the amount permeating the receiver solution, late period / reversibility of the permeation-accelerating effect: 0.003 mM; for increase/accumulation in the amount permeating the receiver solution, late period: period from two hours to five hours after the start of testing, test example 1; for reversibility of the permeation-accelerating effect: recovery of tight junctions and other cell bonding structures; for increase in the amount of FD4 permeating the receiver solution with respect to the negative control (factor): test substance 0.003 mM in 1 v/v % DMSO, two hours after the start of testing, test example 1, FIG. 1; for cell-layer-permeation-promoting effect compared with cu538-2: both at 0.003 mM, test examples 2-4, FIG. 2-4. It is filed as cell-based, dog. The protocol: MDCK II cells derived from dog kidney epithelial cells were used to create a model of an epithelial cell layer in which a transwell was used, and a test to evaluate permeation by substances was conducted. Specifically, MDCK II cells in a logarithmic growth phase were sowed in a transwell (diameter: 6.5 mm, collagen coat, pore size: 0.4 μm) (trade name “Corning Transwell 3495,” made by Corning Co., Ltd.) at a cell count of 3.4 to 4.0×10^4 cells, a 24-hole well plate was used as basal-side wells, and 600 μL of a cell growth medium was introduced into each of apical-side wells and the basal-side wells. The medium was replaced daily to form a layer, and three days after sowing the medium was replaced with a Hank's balanced salt solution (HESS) for measurement. After incubation for one hour at 37° C., layer formation was confirmed by measuring the transepithelial electrical resistance (TEER) using a resistance value measurement system (trade name “Millicell-ERS,” made by Millipore Corp.). After layer formation was confirmed, the apical-side medium was replaced by 100 μL of HESS to which a marker substance (FD4: […]) (made by Sigma KK) having a molecular weight of 4000 was added so as to reach a concentration of 1.0 w/v %, and test substances were added so as to reach the final concentrations indicated below. The transwell was shifted, at intervals of 30 minutes until five hours after addition of the marker substance, to the basal-side wells into which the new HESS entered, and the HESS in the remaining basal-side wells (referred to as a “receiver solution” below) was retrieved 50 μL at a time per well in a 96-hole well plate. The fluorescence intensity of the retrieved HESS at an excitation wavelength of 485 nm and a fluorescence wavelength of 528 nm was measured using a fluorescent plate reader (trade name “Wallac 1420 ARVO MX,” made by Perkin Elmer Corp.).
A test to evaluate permeation by substances was conducted in the same manner as in test example 1, except that the test substances were as indicated below.

The structures appear in SMILES notation. Entries after “also recorded” stand apart in the source; their conditions may differ. Where a SMILES comes first, the peptide text is derived from it. Bridges are numbered along the chain shown (N, C = ends). [ ]: non-standard residue; d: D form. The star is where a group is joined. ξ: configuration not given here. Decanoyl(3ξ-OH) = CCCCCCCC(O)CC(=O)*; Decanoyl = CCCCCCCCCC(=O)*

Take `CCCCCCC[C@@H](O)CC(=O)N[C@@H](CC(C)C)C(=O)N[C@H](CCC(=O)O)C(=O)N[C@H](CCC(N)=O)C(=O)N[C@@H](C(=O)N[C@H](CC(C)C)C(=O)N[C@@H](CCC(N)=O)C(=O)N[C@@H]1COC(=O)[C@H]([C@@H](C)CC)NC(=O)[C@@H](CCC(N)=O)NC(=O)[C@H](CC(C)C)NC(=O)[C@H](CC(C)C)NC(=O)[C@@H](CCC(N)=O)NC(=O)[C@@H](CC(C)C)NC(=O)[C@@H](C(C)C)NC1=O)C(C)C` [cu538-2]: the “cell-layer-permeation-promoting effect (permeation of FD4, result in words)” value is on record as “accelerated permeation of substances in the paracellular pathway”; the “increase/accumulation in the amount permeating the receiver solution, late period” value is recorded as “substantially no increase/accumulation”; the “reversibility of the permeation-accelerating effect” value (“reversibility” below) is reported as “reversible”; the “increase in the amount of FD4 permeating the receiver solution with respect to the negative control (factor)” value is recorded as “eight”.

Turning to `CCCCCCCC(O)CC(=O)N[C@@H](CC(C)C)C(=O)N[C@H](CCC(=O)O)C(=O)N[C@H](CCC(N)=O)C(=O)N[C@@H](C(=O)N[C@H](CC(C)C)C(=O)N[C@@H](C)C(=O)N[C@@H]1COC(=O)[C@H]([C@@H](C)CC)NC(=O)[C@@H](CCC(N)=O)NC(=O)[C@H](CC(C)C)NC(=O)[C@H](CC(C)C)NC(=O)[C@@H](CCC(N)=O)NC(=O)[C@@H](CC(C)C)NC(=O)[C@@H](C(C)C)NC1=O)C(C)C` (stereo partly drawn) [cu592] ({Decanoyl(3ξ-OH)}-L[dE][dQ][dV][dL]A[dS][dV][dL][dQ]LL[dQ]I; ester 7-C), the “cell-layer-permeation-promoting effect compared with cu538-2” value is “equivalent”.

As for `C/C1=C/C(=O)O[C@@H]2C[C@@H](CC[C@H](C)/C=C\C=C\CC1)O[C@@](O)([C@@H]1CSC(=O)N1)C2` [Latrunclin A, reference compound], the “amount of marker substance permeating the receiver solution over time (positive control)” value (0.0001 mM in 1 v/v % DMSO, over five hours after the start of testing) is “continuous increase/accumulation”.

Turning to `CCCCCCCC(O)CC(=O)N[C@@H](CC(C)C)C(=O)N[C@H](CCC(=O)O)C(=O)N[C@H](CCC(N)=O)C(=O)N[C@@H](C(=O)N[C@H](CC(C)C)C(=O)N[C@@H](CCC(N)=O)C(=O)N[C@@H]1COC(=O)[C@H]([C@@H](C)CC)NC(=O)[C@@H](CCC(N)=O)NC(=O)[C@H](CC(C)C)NC(=O)[C@H](CC(C)C)NC(=O)[C@@H](C)NC(=O)[C@@H](CC(C)C)NC(=O)[C@@H](C(C)C)NC1=O)C(C)C` (stereo partly drawn) [cu605] ({Decanoyl(3ξ-OH)}-L[dE][dQ][dV][dL]Q[dS][dV][dL][dA]LL[dQ]I; ester 7-C), the “cell-layer-permeation-promoting effect (permeation of FD4, result in words)” value is listed as “found to have an effect”.

Turning to `CCCCCCCC(O)CC(=O)N[C@@H](CC(C)C)C(=O)N[C@H](CCC(=O)O)C(=O)N[C@H](CCC(N)=O)C(=O)N[C@@H](C(=O)N[C@H](CC(C)C)C(=O)N[C@@H](CCC(N)=O)C(=O)N[C@@H]1COC(=O)[C@H]([C@@H](C)CC)NC(=O)[C@@H](C)NC(=O)[C@H](CC(C)C)NC(=O)[C@H](CC(C)C)NC(=O)[C@@H](CCC(N)=O)NC(=O)[C@@H](CC(C)C)NC(=O)[C@@H](C(C)C)NC1=O)C(C)C` (stereo partly drawn) [cu619] ({Decanoyl(3ξ-OH)}-L[dE][dQ][dV][dL]Q[dS][dV][dL][dQ]LL[dA]I; ester 7-C), the “cell-layer-permeation-promoting effect (permeation of FD4, result in words)” value is reported as “found to have an effect” and the “cell-layer-permeation-promoting effect compared with cu538-2” value is “more remarkable”.

`CCCCCCCCCC(=O)N[C@@H](CC(C)C)C(=O)N[C@H](CCC(=O)O)C(=O)N[C@H](CCC(N)=O)C(=O)N[C@@H](C(=O)N[C@H](CC(C)C)C(=O)N[C@@H](CCC(N)=O)C(=O)N[C@@H]1COC(=O)[C@H]([C@@H](C)CC)NC(=O)[C@@H](CCC(N)=O)NC(=O)[C@H](CC(C)C)NC(=O)[C@H](CC(C)C)NC(=O)[C@@H](CCC(N)=O)NC(=O)[C@@H](CC(C)C)NC(=O)[C@@H](C(C)C)NC1=O)C(C)C` [NY-38] (Decanoyl-L[dE][dQ][dV][dL]Q[dS][dV][dL][dQ]LL[dQ]I; ester 7-C): the “cell-layer-permeation-promoting effect (permeation of FD4, result in words)” value is on record as “accelerated permeation of substances in the paracellular pathway; also recorded: cell-layer-permeation-promoting effect was found”; the “reversibility” value is “reversible”; the “cell-layer-permeation-promoting effect compared with cu538-2” value is listed as “more remarkable”.

As for `CCCCCCC[C@H](O)CC(=O)N[C@@H](CC(C)C)C(=O)N[C@H](CCC(=O)O)C(=O)N[C@H](CCC(N)=O)C(=O)N[C@@H](C(=O)N[C@H](CC(C)C)C(=O)N[C@@H](CCC(N)=O)C(=O)N[C@@H]1COC(=O)[C@H]([C@@H](C)CC)NC(=O)[C@@H](CCC(N)=O)NC(=O)[C@H](CC(C)C)NC(=O)[C@H](CC(C)C)NC(=O)[C@@H](CCC(N)=O)NC(=O)[C@@H](CC(C)C)NC(=O)[C@@H](C(C)C)NC1=O)C(C)C` (single isomer, unassigned) [cu538-1], the “cell-layer-permeation-promoting effect (permeation of FD4, result in words)” value is “accelerated permeation of substances in the paracellular pathway”; the “increase/accumulation in the amount permeating the receiver solution, late period” value is “substantially no increase/accumulation”; the “reversibility” value is given as “reversible”; the “increase in the amount of FD4 permeating the receiver solution with respect to the negative control (factor)” value is “four”.
